Results from patent US20080241904A1, “PROCESS FOR PRODUCING ISOMALTOSE AND USES THEREOF” (KABUSHIKI KAISHA HAYASHIBARA SEIBUTSU KAGAKU KENKYUJO, priority 2001, published 2008).

Tests used:
Format in all cases: biochemical
[1] = system: α-isomaltosylglucosaccharide-forming enzyme from Bacillus globisporus C11; experiment: Action of α-isomaltosylglucosaccharide-forming enzyme on saccharides as substrates (TLC), enzyme of Strain C11; design: key: −: it showed no change; +: it showed a slight reduction of the color of substrate spot and the formation of other reaction product; ++: it showed a high reduction of the color of substrate spot and the formation of other reaction product; +++: it showed a substantial disappearance of the color of substrate spot and the formation of other reaction product; details: two units/g substrate, substrate 2% (w/v), 30° C., pH 6.0, 24 hours
Protocol: (§1) The action of α-isomaltosylglucosaccharide-forming enzyme on saccharides as substrates was tested. First, a solution of maltose, maltotriose, maltotetraose, maltopentaose, maltohexaose, maltoheptaose, isomaltose, isomaltotriose, panose, isopanose, α,α-trehalose (may be abbreviated as “trehalose” hereinafter), kojibiose, nigerose, neotrehalose, cellobiose, gentibiose, maltitol, maltotriitol, lactose, sucrose, erlose, selaginose, maltosyl glucoside, or isomaltosyl glucoside was prepared. To each of the above solutions was added two units/g substrate of the purified specimen of α-isomaltosylglucosaccharide-forming enzyme from Bacillus globisporus C9 in Experiment 2-1 or Bacillus globisporus C11 in Experiment 4-1, and each resulting solution was adjusted to give a substrate concentration of 2% (w/v) and incubated at 30° C. and pH 6.0 for 24 hours. The solutions before and after the enzymatic reactions were respectively subjected to thin-layer chromatography (abbreviated as “TLC” hereinafter). TLC was carried out in such a manner of separating saccharides by developing the solutions twice each using, as a developer, a mixture solution of n-butanol, pyridine, and water (=6:4:1), and, as a thin-layer plate, “[…] 60”, an aluminum plate (20×20 cm) for TLC commercialized by Merck & Co., Inc., Rahway, USA.; detecting the total saccharides in each mixture solution by spraying a mixture of sulfuric acid and methanol onto the aluminum plates to develop color of the total saccharides and detecting non-reducing saccharides in each mixture solution by the diphenylamine-aniline method.

[2] = system: α-isomaltosylglucosaccharide-forming enzyme from Bacillus globisporus C9; experiment: Action of α-isomaltosylglucosaccharide-forming enzyme on saccharides as substrates (TLC), enzyme of Strain C9; design: key: −: it showed no change; +: it showed a slight reduction of the color of substrate spot and the formation of other reaction product; ++: it showed a high reduction of the color of substrate spot and the formation of other reaction product; +++: it showed a substantial disappearance of the color of substrate spot and the formation of other reaction product; details: two units/g substrate, substrate 2% (w/v), 30° C., pH 6.0, 24 hours
Protocol: as §1

[3] = system: α-isomaltosylglucosaccharide-forming enzyme from Bacillus globisporus C11 strain; experiment: Specificity of saccharide transferring reaction acceptor, enzyme of Strain C11; details: 1.6% acceptor, 4% PINE-DEX #100 as donor, one unit/g donor, 30° C., pH 6.0, 24 hours; GLC or HPLC
Protocol: (§2) Using different saccharides, it was tested whether the saccharides were used as saccharide transferring reaction acceptors for the α-isomaltosylglucosaccharide-forming enzyme. A 1.6% solution, as a solution of saccharide transferring reaction acceptor, of D-glucose, D-xylose, L-xylose, D-galactose, D-fructose, D-mannose, D-arabinose, D-fucose, L-sorbose, L-rhamnose, methyl-α-glucopyranoside (methyl-α-glucose), methyl-β-glucopyranoside ([…]), N-acetyl-glucosamine, sorbitol, α,α-trehalose, isomaltose, isomaltotriose, cellobiose, gentibiose, maltitol, lactose, sucrose, α-cyclodextrin, β-cyclodextrin, or γ-cyclodextrin, was prepared. To each solution with a saccharide concentration was added “PINE-DEX #100”, a partial starch hydrolysate, as a saccharide donor, to give a concentration of 4%, and admixed with one unit/g saccharide donor, d.s.b., of either of purified specimens of α-isomaltosylglucosaccharide-forming enzyme from Bacillus globisporus C9 strain obtained by the method in Experiment 2-1, Bacillus globisporus C11 strain obtained by the method in Experiment 4-1. The resulting mixture solutions were incubated at 30° C. and pH 6.0 except that the enzyme from Arthrobacter globiformis A19 strain was incubated at pH 8.4 for 24 hours. The reaction mixtures of the post-enzymatic reactions were analyzed on gas chromatography (abbreviated as “GLC” hereinafter) for monosaccharides and disaccharides as acceptors, and on HPLC for trisaccharides as acceptors to confirm whether these saccharides could be used as their saccharide transferring reaction acceptors. In the case of performing GLC, the following apparatuses and conditions are used: GLC apparatus, “GC-16A” commercialized by Shimadzu Corporation, Tokyo, Japan; column, a stainless-steel column, 3 mm in diameter and 2 m in length, packed with 2% “SILICONE OV-17/CHROMOSOLV W”, commercialized by GL Sciences Inc., Tokyo, Japan; carrier gas, nitrogen gas at a flow rate of 40 ml/min under temperature conditions of increasing from 160° C. to 320° C. at an increasing temperature rate of 7.5° C./min; and detection, a hydrogen flame ionization detector.
(§3) In the case of HPLC analysis, the apparatuses and conditions used were: HPLC apparatus, “CCPD” commercialized by Tosoh Corporation, Tokyo, Japan; column, “ODS-AQ-303” commercialized by YMC Co., Ltd., Tokyo, Japan; eluent, water at a flow rate of 0.5 ml/min; and detection, a differential refractometer.

[4] = system: α-isomaltosylglucosaccharide-forming enzyme from Bacillus globisporus C9 strain; experiment: Specificity of saccharide transferring reaction acceptor, enzyme of Strain C9; details: 1.6% acceptor, 4% PINE-DEX #100 as donor, one unit/g donor, 30° C., pH 6.0, 24 hours; GLC or HPLC
Protocol: as §2, §3

| Compound | Enzymatic action, Enzyme of Strain C11 [1] | Enzymatic action, Enzyme of Strain C9 [2] | Product of saccharide transferring reaction, Enzyme of Strain C11 [3] | Product of saccharide transferring reaction, Enzyme of Strain C9 [4] |
| --- | --- | --- | --- | --- |
| O=C[C@H](O)[C@@H](O)[C@H](O[C@@H]1O[C@H](CO)[C@@H](O)[C@H](O)[C@H]1O)[C@H](O)CO [Cellobiose, cellobiose] | − | − | ++ (a saccharide-transferred product was detected in an amount of at least ten percent through transferring reaction to acceptor) | ++ (a saccharide-transferred product was detected in an amount of at least ten percent through transferring reaction to acceptor) |
| OC[C@H]1O[C@@](CO)(O[C@H]2O[C@H](CO)[C@@H](O[C@H]3O[C@H](CO)[C@@H](O)[C@H](O)[C@H]3O)[C@H](O)[C@H]2O)[C@@H](O)[C@@H]1O [Erlose, erlose] | + | + |  |  |
| OC[C@H]1O[C@@H](OC[C@H]2OC(O)[C@H](O)[C@@H](O)[C@@H]2O)[C@H](O)[C@@H](O)[C@@H]1O (some centres unmarked) [Gentibiose, gentibiose] | − | − | ++ (a saccharide-transferred product was detected in an amount of at least ten percent through transferring reaction to acceptor) | ++ (a saccharide-transferred product was detected in an amount of at least ten percent through transferring reaction to acceptor) |
| OC[C@H]1O[C@H](OC[C@H]2OC(O)[C@H](O)[C@@H](O)[C@@H]2O)[C@H](O)[C@@H](O)[C@@H]1O (some centres unmarked) [Isomaltose, isomaltose] | − | − | ++ (a saccharide-transferred product was detected in an amount of at least ten percent through transferring reaction to acceptor) | ++ (a saccharide-transferred product was detected in an amount of at least ten percent through transferring reaction to acceptor) |
| OC[C@H]1O[C@H](O[C@H]2[C@H](O)[C@@H](O)[C@@H](OC[C@H]3OC(O)[C@H](O)[C@@H](O)[C@@H]3O)O[C@@H]2CO)[C@H](O)[C@@H](O)[C@@H]1O (some centres unmarked) [Isopanose, isopanose] | ++ | ++ |  |  |
| OC[C@H]1O[C@H](O[C@H]2C(O)O[C@H](CO)[C@@H](O)[C@@H]2O)[C@H](O)[C@@H](O)[C@@H]1O (some centres unmarked) [Kojibiose, kojibiose] | + | + |  |  |
| OC[C@H]1O[C@H](O[C@H]2[C@H](O)[C@@H](O)[C@H](O)O[C@@H]2CO)[C@H](O)[C@@H](O)[C@@H]1O [Maltose, maltose] | + | + |  |  |
| OC[C@H]1O[C@H](O[C@H]2O[C@H](CO)[C@@H](O[C@H]3O[C@H](CO)[C@@H](O)[C@H](O)[C@H]3O)[C@H](O)[C@H]2O)[C@H](O)[C@@H](O)[C@@H]1O [Maltosylglucoside, maltosyl glucoside] | ++ | ++ |  |  |
| OC[C@H]1O[C@H](O[C@H]2[C@H](O)[C@@H](O)[C@@H](O[C@H]3[C@H](O)[C@@H](O)[C@@H](O[C@H]4[C@H](O)[C@@H](O)C(O)O[C@@H]4CO)O[C@@H]3CO)O[C@@H]2CO)[C@H](O)[C@@H](O)[C@@H]1O (some centres unmarked) [Maltotetraose, maltotetraose] | +++ | +++ |  |  |
| OC[C@@H](O)[C@@H](O[C@H]1O[C@H](CO)[C@@H](O[C@H]2O[C@H](CO)[C@@H](O)[C@H](O)[C@H]2O)[C@H](O)[C@H]1O)[C@H](O)[C@@H](O)CO [Maltotriitol, maltotriitol] | + | + |  |  |
| OC[C@H]1O[C@@H](O[C@H]2O[C@H](CO)[C@@H](O)[C@H](O)[C@H]2O)[C@H](O)[C@@H](O)[C@@H]1O [Neotrehalose, neotrehalose] | + | + |  |  |
| OC[C@H]1O[C@H](O[C@H]2[C@H](O)[C@@H](CO)OC(O)[C@@H]2O)[C@H](O)[C@@H](O)[C@@H]1O (some centres unmarked) [Nigerose, nigerose] | + | + |  |  |
| OC[C@H]1O[C@H](OC[C@H]2O[C@H](O[C@H]3[C@H](O)[C@@H](O)C(O)O[C@@H]3CO)[C@H](O)[C@@H](O)[C@@H]2O)[C@H](O)[C@@H](O)[C@@H]1O (some centres unmarked) [Panose, panose] | − | − |  |  |
| OC[C@H]1O[C@H](O[C@H]2O[C@H](CO)[C@@H](O)[C@H](O)[C@H]2O[C@H]2O[C@H](CO)[C@@H](O)[C@H](O)[C@H]2O)[C@H](O)[C@@H](O)[C@@H]1O [Selaginose, selaginose] | − | − |  |  |
| isomaltosyl glucoside [Isomaltosylglucoside] | − | − |  |  |
| maltoheptaose | +++ | +++ |  |  |
| maltohexaose | +++ | +++ |  |  |
| maltopentaose | +++ | +++ |  |  |
| maltotriose | ++ | ++ |  |  |
